In patent US12600728B2, “Interleukin-17 inhibitors” (priority 2020, dated 2026):
Like-named read-outs stand apart in the source and are kept apart here.

Assays:
[1] = molecular target: biotinylated human IL-17A / AF647-labeled human IL-17RA (Homo sapiens, UniProt Q16552); assay: Human IL-17A×IL-17RA TR-FRET assay; format: binding
Procedure, shortened: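 Compounds tested in duplicate at each concentration; neutral controls contain all components with DMSO in place of compound.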

[2] = molecular target: recombinant human IL-17AA (Homo sapiens, UniProt Q16552); assay: IL-6 release from NHDF cells, IL-17AA plus TNF-α stimulation; format: cell-based; details: 24 hours, IL-6 by ELISA
recombinant human IL-17AA, sequence (Q16552 24-155): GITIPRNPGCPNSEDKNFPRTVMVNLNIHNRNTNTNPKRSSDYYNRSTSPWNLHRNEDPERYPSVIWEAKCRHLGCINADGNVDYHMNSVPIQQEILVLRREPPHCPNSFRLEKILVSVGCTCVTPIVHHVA
Protocol: IL-6 Release from NHDF Cells (Normal Human Dermal Fibroblasts)
NHDF cells isolated from normal adult mesoderm, connective tissues were cultured in fibroblast growth medium containing 2% supplement. […] The cells were allowed to adhere overnight before they were incubated with the compound/cytokine cocktail.
Diluted compounds were pre-incubated with recombinant human IL-17AA or IL-17AF plus human TNF-α for 30 minutes at room temperature on a shaker. […] The cells were incubated with the compound/cytokines cocktail for 24 hours at 37° C. (5% CO2). […] The final DMSO or plasma concentrations were 0.1% or 20%, respectively. All compound incubations were done in duplicate. The supernatants were collected to quantify IL-6 by ELISA according to the manufacturers instructions. The optical density was measured at 450 nm by an EnVision Multilabel Plate Reader (Perkin Elmer). The IL-6 levels produced after TNF-α stimulation were subtracted from the IL-6 produced after IL-17/TNF-α co-stimulation. These IL-17-specific IL-6 concentrations were used for […] value calculation.

[3] = TR-FRET, 5 nM IL-17A, 30 nM IL-17RA, read-out: IL17AA FRET/ IL17Rawt IC50
[4] = NHDF cells, IL-17AA 30 pM + TNF-α 6 pM, read-out: IL17AA + TNF IC50 IL-6
[5] = TR-FRET, biotinylated human IL-17A 5 nM, AF647-labeled human IL-17RA 30 nM, read-out: IL17AA FRET/ IL17Rawt IC50
[6] = NHDF cells, IL-17AA 30 pM plus TNF-α 6 pM, read-out: IL17AA + TNF IC50 IL-6
[7] = IL17AA FRET/ IL17Rawt IC50, TR-FRET, 5 nM IL-17A, 30 nM IL-17RA
[8] = IL17AA + TNF IC50 IL-6, NHDF cells, IL-17AA 30 pM + TNF-α 6 pM

biotinylated human IL-17A / AF647-labeled human IL-17RA, sequence (Q16552 24-155): as above

SMILES | IC50 [1, 3] [µM] | IC50 [2, 4] [µM] | IC50 [1, 5] [µM] | IC50 [2, 6] [µM] | further results
Cc1c(-c2ccc(NC(=O)C(NC(=O)c3ccnn3C)C3CCCC(F)C3)cc2)c(Cl)cc[n+]1[O-] (stereo not shown) [Example 182, 4-chloro-3-(4-(2-(3-fluorocyclohexyl)-2-(1-methyl-1H-pyrazole-5-carboxamido)acetamido)phenyl)-2-methylpyridine 1-oxide] | 0.0612 | 0.0445 | – | – | –
CCn1nccc1C(=O)N[C@H](C(=O)Nc1ccc(-c2c(C)cc[n+]([O-])c2C)cc1)C1CCCC1 [Example 35, (S)-3-(4-(2-cyclopentyl-2-(1-ethyl-1H-pyrazole-5-carboxamido)acetamido)phenyl)-2,4-dimethylpyridine 1-oxide] | – | – | 0.306 | 0.212 | –
COCc1nocc1C(=O)N[C@H](C(=O)Nc1ccc(-c2c(C)cc[n+]([O-])c2C)cc1)C1CCC(F)(F)CC1 [Example 33, (S)-3-(4-(2-(4,4-difluorocyclohexyl)-2-(3-(methoxymethyl)isoxazole-4-carboxamido)acetamido)phenyl)-2,4-dimethylpyridine 1-oxide] | – | – | 1.15 | 0.088 | –
CCn1nccc1C(=O)NC(C(=O)Nc1ccc(-c2c(Cl)cc[n+]([O-])c2C)cc1)C1CC2CC2C1 (stereo not shown) [Example 70, 3-(4-(2-(bicyclo[3.1.0]hexan-3-yl)-2-(1-ethyl-1H-pyrazole-5-carboxamido)acetamido)phenyl)-4-chloro-2-methylpyridine 1-oxide] | – | – | 0.084 | 0.026 | –
Cc1cc[n+]([O-])c(C)c1-c1ccc(NC(=O)[C@@H](NC(=O)c2conc2C)C2CCCCCC2)nc1 [Example 44, (S)-6′-(2-cycloheptyl-2-(3-methylisoxazole-4-carboxamido)acetamido)-2,4-dimethyl-[3,3′-bipyridine] 1-oxide] | – | – | 0.034 | 0.018 | –
Cc1cc[n+]([O-])c(C)c1-c1ccc(NC(=O)[C@@H](NC(=O)c2ccnn2C(C)C)C(c2ccccc2)c2ccccc2)cc1 [Example 68, (S)-3-(4-(2-(1-isopropyl-1H-pyrazole-5-carboxamido)-3,3-diphenylpropanamido)phenyl)-2,4-dimethylpyridine 1-oxide] | – | – | 0.076 | 0.016 | –
Cc1cc[n+]([O-])c(C)c1-c1ccc(NC(=O)[C@@H](NC(=O)c2ccn3c2CN(C)CC3)C2CCCCCC2)cc1 [Example 119, (S)-3-(4-(2-cycloheptyl-2-(2-methyl-1,2,3,4-tetrahydropyrrolo[1,2-a]pyrazine-8-carboxamido)acetamido)phenyl)-2,4-dimethylpyridine 1-oxide] | – | – | 0.13 | 0.015 | –
CC(=O)N1CCn2c(ccc2C(=O)N[C@H](C(=O)Nc2ccc(-c3c(Cl)cc[n+]([O-])c3C)c(F)c2)C2CCCCC2)C1 [Example 187, 3-(4-((S)-2-(2-acetyl-1,2,3,4-tetrahydropyrrolo[1,2-a]pyrazine-6-carboxamido)-2-cyclohexylacetamido)-2-fluorophenyl)-4-chloro-2-methylpyridine 1-oxide] | 0.0854 | 0.017 | – | – | –
CCn1nccc1C(=O)NC(C(=O)Nc1ccc(-c2c(Cl)cc[n+]([O-])c2C)c(F)c1)[C@H]1C[C@@H]2C[C@@H]2C1 (stereo partly drawn) [Example 58, 3-(4-(2-((1R,3s,5S)-bicyclo[3.1.0]hexan-3-yl)-2-(1-ethyl-1H-pyrazole-5-carboxamido)acetamido)-2-fluorophenyl)-4-chloro-2-methylpyridine 1-oxide] | – | – | 0.044 | 0.012 | –
Cc1cc[n+]([O-])c(C)c1-c1ccc(NC(=O)[C@@H](NC(=O)c2ccnn2C)[C@H]2CCC[C@@H](F)CC2)cc1 [Example 215, 3-(4-((S)-2-((1S,4R)-4-fluorocycloheptyl)-2-(1-methyl-1H-pyrazole-5-carboxamido)acetamido)phenyl)-2,4-dimethylpyridine 1-oxide] | 0.755 | 0.138 | – | – | –
Cc1c(-c2ccc(NC(=O)[C@@H](NC(=O)c3ccnn3C)C3CCCCC3)cc2)cc(Cl)c[n+]1[O-] [Example 175, (S)-5-chloro-3-(4-(2-cyclohexyl-2-(1-methyl-1H-pyrazole-5-carboxamido)acetamido)phenyl)-2-methylpyridine 1-oxide] | – | – | – | – | IC50 [1, 7]: 0.846 µM; IC50 [2, 8]: 0.13 µM
Cc1cc[n+]([O-])c(C(F)F)c1-c1ccc(NC(=O)[C@@H](NC(=O)c2ccnn2C)C2CCCCC2)cc1 [Example 104, (S)-3-(4-(2-cyclohexyl-2-(1-methyl-1H-pyrazole-5-carboxamido)acetamido)phenyl)-2-(difluoromethyl)-4-methylpyridine 1-oxide] | – | – | 1.6 | 0.139 | –
Cc1cc[n+]([O-])c(C)c1-c1ccc(NC(=O)[C@@H](NC(=O)c2ccc3n2CCN(C)C3)C2CCCCCC2)cc1 [Example 120, (S)-3-(4-(2-cycloheptyl-2-(2-methyl-1,2,3,4-tetrahydropyrrolo[1,2-a]pyrazine-6-carboxamido)acetamido)phenyl)-2,4-dimethylpyridine 1-oxide] | – | – | 0.094 | 0.004 | –
Cc1cc[n+]([O-])c(C)c1-c1ccc(NC(=O)[C@@H](NC(=O)c2ccnn2C)C2CCCCC2)cc1F [Example 95, 3-(4-((S)-2-cyclohexyl-2-(1-methyl-1H-pyrazole-5-carboxamido)acetamido)-2-fluorophenyl)-2,4-dimethylpyridine 1-oxide] | – | – | 0.125 | 0.019 | –
Cc1cc[n+]([O-])c(C)c1-c1ccc(NC(=O)[C@@H](NC(=O)c2ccc3n2CCNC3)C2CCC(F)CC2)cc1 (stereo partly drawn) [Example 200, 3-(4-((2S)-2-(4-fluorocyclohexyl)-2-(1,2,3,4-tetrahydropyrrolo[1,2-a]pyrazine-6-carboxamido)acetamido)phenyl)-2,4-dimethylpyridine 1-oxide] | 0.246 | 0.416 | – | – | –
Cc1cc[n+]([O-])c(C)c1-c1ccc(NC(=O)C(NC(=O)c2ccnn2C)C2CCC(C)CC2)cc1 [Example 3, 2,4-dimethyl-3-(4-((S)-2-(1-methyl-1H-pyrazole-5-carboxamido)-2-((1r,4S)-4-methylcyclohexyl)acetamido)phenyl)pyridine 1-oxide] | – | – | 0.024 | 0.007 | –
Cc1c(-c2ccc(NC(=O)C(NC(=O)c3ccnn3C)[C@H]3C[C@@H]4C[C@@H]4C3)cc2F)c(Cl)cc[n+]1[O-] (stereo partly drawn) [Example 225, 3-(4-(2-((1R,3s,5S)-bicyclo[3.1.0]hexan-3-yl)-2-(1-methyl-1H-pyrazole-5-carboxamido)acetamido)-2-fluorophenyl)-4-chloro-2-methylpyridine 1-oxide] | – | – | – | – | IC50 [1, 7]: 0.029 µM; IC50 [2, 8]: 0.012 µM
Cc1c(-c2ccc(NC(=O)[C@@H](NC(=O)c3ccnn3C)C3CCCCCC3)cc2)c(Cl)cc[n+]1[O-] [Example 47, (S)-4-chloro-3-(4-(2-cycloheptyl-2-(1-methyl-1H-pyrazole-5-carboxamido)acetamido)phenyl)-2-methylpyridine 1-oxide] | – | – | 0.017 | 0.007 | –
CC(=O)N1CCn2c(ccc2C(=O)N[C@H](C(=O)Nc2ccc(-c3c(C)cc[n+]([O-])c3C)cc2F)C2CCCCCC2)C1 [Example 195, (S)-3-(4-(2-(2-acetyl-1,2,3,4-tetrahydropyrrolo[1,2-a]pyrazine-6-carboxamido)-2-cycloheptylacetamido)-3-fluorophenyl)-2,4-dimethylpyridine 1-oxide] | 0.178 | 0.0285 | – | – | –
Cc1cc[n+]([O-])c(C)c1-c1ccc(NC(=O)[C@@H](NC(=O)c2ccc3n2CCN(C)C3)C2CCC(F)(F)CC2)cc1 [Example 151, (S)-3-(4-(2-(4,4-difluorocyclohexyl)-2-(2-methyl-1,2,3,4-tetrahydropyrrolo[1,2-a]pyrazine-6-carboxamido)acetamido)phenyl)-2,4-dimethylpyridine 1-oxide] | 0.26 | 0.057 | – | – | –
CCn1nccc1C(=O)N[C@H](C(=O)Nc1ccc(-c2c(C)cc[n+]([O-])c2C)cc1)C1CCC(F)(F)CC1 [Example 159, (S)-3-(4-(2-(4,4-difluorocyclohexyl)-2-(1-ethyl-1H-pyrazole-5-carboxamido)acetamido)phenyl)-2,4-dimethylpyridine 1-oxide] | – | – | – | – | IC50 [1, 7]: 0.1 µM; IC50 [2, 8]: 0.031 µM
CCn1nccc1C(=O)NC(C(=O)Nc1ccc(-c2c(Cl)cc[n+]([O-])c2C)cc1)C1CC2CC2C1 (single isomer, unassigned) [Example 145] | 0.024 | 0.0235 | – | – | –
Cc1c(-c2ccc(NC(=O)[C@@H](NC(=O)c3ccnn3C)C3CCCCC3)cc2F)c(C(F)(F)F)cc[n+]1[O-] [Example 66, 3-(4-((S)-2-cyclohexyl-2-(1-methyl-1H-pyrazole-5-carboxamido)acetamido)-2-fluorophenyl)-2-methyl-4-(trifluoromethyl)pyridine 1-oxide] | – | – | 0.018 | 0.004 | –
